According to article PMC12040169 (PLOS Biology, 2025):

test: in vitro; details: human, hela cells

Row | SMILES | viability at 28.5 h, 10 µM
1 | CC1CN(C(=O)COc2ccccc2OC(=O)N(C)C)CC(C)O1 (centres unmarked) [CBK057627] | 121%

same assay, conditions: human, hela cells, % viability

Row | SMILES | viability at 28.5 h, 10 µM
2 | CN1CCN(S(=O)(=O)c2ccc(C(C)(C)C)cc2)CC1 [CBK051237] | 106%
3 | CCOC(=O)C1CCN(S(=O)(=O)c2cccc3cccnc23)CC1 [CBK051242] | 92.5%
4 | COC(=O)C1CCCCN1S(=O)(=O)c1cccc2cccnc12 (centres unmarked) [CBK051244] | 82.2%
5 | COc1ccc([C@@]23CC[C@@H](NC(=O)Nc4ccc(OC)c(C(F)(F)F)c4)C[C@@H]2N(C)CC3)cc1OC [CBK051268T] | 107%
6 | COc1ccc([C@@]23CC[C@@H](NC(=O)Nc4cccc(-c5nn[nH]n5)c4)C[C@@H]2N(C)CC3)cc1OC [CBK051273T] | 87.8%
7 | COc1ccc(CO)cc1OCc1ccccc1 [CBK051334] | 110%
8 | O=S(=O)(c1cc(Cl)sc1Cl)N1CCCCC1CO (centres unmarked) [CBK051422] | 87.2%
9 | CC(C)(C)c1ccc([S+]([O-])c2cncc(N3CCNCC3)n2)cc1 (centres unmarked) [CBK051434C] | 88.4%
10 | Cc1cc(F)c(S(N)(=O)=O)cc1NC(=O)c1ccc(C(F)(F)F)cc1 [CBK051448] | 104%
11 | COCC1=C(C(=O)OC)[C@H](c2ccc(F)c(F)c2)N(C(=O)NCCCN2CCC(c3cccc(NC(C)=O)c3)CC2)C(=O)N1 [CBK051451C] | 93.5%
12 | c1ccc(CCN2CCC(c3nc(-c4ccccc4)no3)CC2)cc1 [CBK051454] | 89.8%
13 | COc1cccc(-c2noc(C3CCN(CCc4ccccc4)CC3)n2)c1 [CBK051455] | 99.7%
14 | Fc1ccc(-c2noc(C3CCN(CCc4ccccc4)CC3)n2)cc1 [CBK051457] | 91.3%
15 | COc1cccc(-c2noc(C3CCN(CCc4ccc(F)cc4)CC3)n2)c1 [CBK051461] | 121%
16 | Fc1ccc(CCN2CCC(c3nc(-c4cccnc4)no3)CC2)cc1 [CBK051464] | 118%
17 | CC(=O)c1ccc(S(=O)(=O)N2CCCCC2CNC(=O)c2ccco2)cc1 (centres unmarked) [CBK051472] | 103%
18 | Cc1cc(F)c(S(N)(=O)=O)cc1NC(=O)c1cccc(Br)c1 [CBK051488] | 90.9%
19 | O=C(c1nn2c(C(F)(F)F)cc(-c3ccccc3)nc2c1Br)N1CCCCC1 [CBK051497] | 97.6%
20 | CCCNC(=O)c1nn2c(C(F)(F)F)cc(-c3ccccc3)nc2c1Cl [CBK051499] | 110%
21 | COc1cccc(OC)c1OCCN1CCC(CNC(=O)Nc2cccc(C(F)(F)F)c2)CC1 [CBK051512T] | 96.7%
22 | COc1cc(NC(=O)NCC2CCN(CCOc3c(OC)cccc3OC)CC2)cc(OC)c1 [CBK051514] | 89.1%
23 | COc1cccc(OC)c1OCCN1CCC(NC(=O)Nc2ccc(Cl)cn2)CC1 [CBK051515] | 94.4%
24 | N#Cc1cccc(S(=O)(=O)N2CCCCC2CO)c1 (centres unmarked) [CBK051524] | 100%

Row | SMILES | viability at 28.5 h, 10 µM
25 | CNC(=O)C1CCN(S(=O)(=O)c2ccc(C(C)(C)C)cc2)CC1 [CBK051544] | 90.3%
26 | CC(C)(C)c1ccc(C(=O)N2CCN(C(=O)CN3CCOCC3)C2)cc1 [CBK051554C] | 112%
27 | O=C(CN1CCOCC1)N1CCN(C(=O)c2ccc(C(F)(F)F)cc2)C1 [CBK051555C] | 92.1%
28 | C[C@@H]1CN(C)CCN1c1nccnc1OCCOc1cccnc1OCCCCCN(C)C [CBK051566] | 103%
29 | COc1ccc(C)cc1S(=O)(=O)n1ccc2c(OC3CCCN(C)C3)nccc21 (centres unmarked) [CBK051582C] | 85.3%
30 | COc1ccc([C@@]23CC[C@@H](NC(=O)Nc4ncc(Cl)s4)C[C@@H]2N(C)CC3)cc1OC [CBK051620T] | 96.1%
31 | COc1ccc(C)cc1S(=O)(=O)Nc1ccc(O[C@@H]2CCNC2)c2ccccc12 [CBK051622C] | 104%
32 | CS(=O)(=O)NCC1(c2ccccc2)CCN(S(=O)(=O)c2ccc(N3CCOCC3)nc2)CC1 [CBK051634] | 90%
33 | c1cc2[nH]ccc2c(N2CCNCC2)n1 [CBK051673C] | 90.7%
34 | COc1ccc([C@@]23CC[C@@H](NC(=O)Nc4ccc(F)c(F)c4)C[C@@H]2N(C(=O)CN)CC3)cc1OC [CBK051679] | 111%
35 | CC1CN(CC(=O)NC(C)(C)c2ccccc2)CC(C)N1 (centres unmarked) [CBK051693] | 83.8%
36 | Cc1nc(NCCCn2ccnc2)c2ccccc2n1 [CBK051987] | 95.1%
37 | CCOC(=O)CSc1nc2ccccc2c(=O)n1Cc1ccccc1 [CBK054124] | 95.4%
38 | Cn1c(SCC(=O)c2ccccc2)nc2ccccc2c1=O [CBK055260] | 87.6%
39 | COc1ccc([C@@]23CCCN(C(=O)Nc4ccc(C)c(F)c4)C[C@@H]2N(C)CC3)cc1OC [CBK056680T] | 110%
40 | Cc1c(F)cccc1CNC1CCC(NC(=O)OC(C)(C)C)CC1 (centres unmarked) [CBK056691] | 85%
41 | CC(C)(C)OC(=O)NCCNCc1ccccc1Br [CBK056693] | 92.1%
42 | CC(C)(C)OC(=O)NCCNCc1ccccc1C(F)(F)F [CBK056695] | 80%
43 | COc1ccc(F)c(CNCCNC(=O)OC(C)(C)C)c1 [CBK056699] | 93.9%
44 | Cc1c(F)cccc1CNCCNC(=O)OC(C)(C)C [CBK056700] | 95.7%
45 | CC(C)(C)OC(=O)NCc1ccc(CNCc2ccccc2Br)cc1 [CBK056701] | 96.6%
46 | CC(C)(C)OC(=O)NCc1ccc(CNCc2ccc(-c3ccccc3)cc2)cc1 [CBK056706] | 96.8%
47 | Cc1c(F)cccc1CNCc1ccc(CNC(=O)OC(C)(C)C)cc1 [CBK056708] | 103%

Row | SMILES | viability at 28.5 h, 10 µM
48 | Cc1cccc(CNCC2CCN(C(=O)OC(C)(C)C)CC2)n1 [CBK056713] | 104%
49 | CC(C)(C)OC(=O)N1CCC(CNCc2cc(F)cc(F)c2)CC1 [CBK056715] | 119%
50 | Cc1c(F)cccc1CNCC1CCN(C(=O)OC(C)(C)C)CC1 [CBK056717] | 85.7%
51 | CC(C)(C)OC(=O)N1CCC(CNCc2c[nH]c(-c3ccccc3)n2)CC1 [CBK056718] | 94.3%
52 | COc1ccc([C@@]23CC[C@@H](NS(=O)(=O)c4cccc5cccnc45)C[C@@H]2N(C)CC3)cc1OC [CBK056849T] | 80.8%
53 | O=C(OCCC1SC(NC2CC3C=CC2C3)=NC1=O)c1cc(C(F)(F)F)cc(C(F)(F)F)c1 (centres unmarked) [CBK056857T] | 100%
54 | O=C(Nc1cnccn1)c1ccc(Cl)cc1Cl [CBK056922] | 85.5%
55 | CC(C)(C)OC(=O)NCCNC(=O)Nc1ccccc1C(F)(F)F [CBK056940] | 98.6%
56 | CCCCOc1ccc(-c2ccc(C#N)cc2)cc1 [CBK056958] | 93%
57 | COc1ccc2c(c1)CCCN2C(=O)c1sc2ccccc2c1Cl [CBK056960] | 90.2%
58 | O=C(NCCc1ccncc1)c1cccs1 [CBK056969] | 107%
59 | CN(C)C(=O)C(C)(C)Oc1cc(C(F)(F)F)n(C)n1 [CBK056980] | 94.2%
60 | O=S(=O)(c1ccccc1)N1CCCC1c1cccs1 (centres unmarked) [CBK057002] | 110%
61 | CSc1ccccc1NC(=O)c1cc(Cl)sc1Cl [CBK057008] | 99.2%
62 | CC(C)(C)SCCNS(=O)(=O)c1ccc(Cl)c(Cl)c1 [CBK057015] | 92.1%
63 | COC(=O)c1sccc1NC(=O)/C=C/c1ccccc1 [CBK057041] | 115%
64 | N#Cc1c(F)cccc1NCc1cccnc1 [CBK057053] | 116%
65 | CCOC(=O)N1CCN(S(=O)(=O)c2coc(C)c2C(=O)OC)CC1 [CBK057079] | 94.7%
66 | COC(=O)c1cc(OC)c(OC)cc1NC(=O)C1CCC1C(=O)O (centres unmarked) [CBK057084] | 82.5%
67 | OC(CNCc1cccs1)c1ccccc1 (centres unmarked) [CBK057092] | 90.8%
68 | Cc1ccc(OCC(O)CN2CCC(C(N)=O)CC2)cc1C (centres unmarked) [CBK057100] | 105%
69 | COC(=O)c1c(C)oc(C)c1S(=O)(=O)Nc1ccc(C(C)C)cc1 [CBK057115] | 88%
70 | O=C(/C=C/c1ccsc1)Nc1ccc(F)cc1 [CBK057139] | 93.9%

Row | SMILES | viability at 28.5 h, 10 µM
71 | O=C(O)C1CCC1C(=O)N1CCN(c2ccc(C(F)(F)F)cn2)CC1 (centres unmarked) [CBK057147] | 93.7%
72 | O=S(=O)(c1cccs1)N1CCC2(CC1)OCCO2 [CBK057295] | 95.1%
73 | Cc1cc(C(=O)N(CCC#N)Cc2cccs2)no1 [CBK057316] | 112%
74 | O=C(O)CCC(=O)N1CCN(c2ncccn2)CC1 [CBK057422] | 114%
75 | O=C(O)CCC(=O)Nc1cc(C(F)(F)F)ccc1N1CCCC1 [CBK057434] | 94.2%
76 | CCCCNCCn1cnc2c(N)ncnc21 [CBK057447] | 116%
77 | COC(=O)C(CCSC)NC(=O)c1ccc(C(F)(F)F)cc1 (centres unmarked) [CBK057452] | 91.9%
78 | O=C(O)C1CNC(=O)N1C(=O)OCc1ccccc1 (centres unmarked) [CBK057462] | 98.8%
79 | Cc1ccc(NC2C=CS(=O)(=O)C2)cc1 (centres unmarked) [CBK057487] | 89.5%
80 | O=C(Nc1ccc(F)c(Cl)c1)c1cccnc1Sc1cccs1 [CBK057512] | 89%
81 | O=C(NCCSCc1ccco1)C1CCC1 [CBK057516] | 119%
82 | O=C(Nc1ccc2c(c1)CS(=O)(=O)C2)c1cccs1 [CBK057563] | 113%
83 | O=S(=O)(Nc1ccccc1)c1ccccc1I [CBK057566] | 92.5%
84 | O=S(=O)(NC1CCCCC1)c1ccc(Cl)cc1I [CBK057574] | 80.8%
85 | COCC(C)NC(=O)c1cc2c(C)cc(C)cc2[nH]1 (centres unmarked) [CBK057591] | 91.8%
86 | O=C(O)CCNc1ccc(Cl)cc1 [CBK057631] | 75.5%
87 | O=C(Nc1cccc(Cl)c1Cl)c1cccs1 [CBK057672] | 104%
88 | O=C(CSc1ccccn1)Nc1cccc(Cl)c1Cl [CBK057679] | 91.8%
89 | CSc1ccc(CNC(=O)c2ccc(Cl)cc2)s1 [CBK057705] | 89.4%
90 | COc1ccc(OCCC(=O)O)cc1 [CBK057706] | 86.2%
91 | Cc1cc(Cl)ccc1NC(=O)COCC(=O)O [CBK057723] | 104%
92 | O=S(=O)(c1c(Cl)cc(C(F)(F)F)cc1Cl)N1CCOCC1 [CBK057736] | 88.8%
